Experimental data: US20250275991A1, “ORAL COMPLEMENT FACTOR D INHIBITORS” (BioCryst Pharmaceuticals, Inc, priority 2019, published 2025)

Molecular target: Factor D (Homo sapiens, UniProt P00746)
Assay: Factor D esterolytic assay
Assay type: biochemical
Settings: substrate Z-Lys-SBzl 1.29 mM, 100 mM HEPES, 500 mM NaCl, pH 7.5, 10% DMSO, tested a minimum of three times
Description: The IC50 value of a compound (i.e., the concentration of the compound that inhibits 50% of the enzymatic activity) was calculated according to the procedure reported in U.S. Pat. No. 6,653,340 B1, e.g., column 74 (incorporated by reference).
Specifically, the compounds were dissolved in a stock solution of DMSO at 10.0 or 100 mM. A portion of this stock solution was added to assay buffer in a final volume of 50 μL. Controls included buffer alone and enzyme solutions to which DMSO was added. Substrate was added to the reaction wells immediately or after incubation at room temperature. The reaction rates were measured spectrophotometrically by the generation of product at 405 nm for 600 sec. Background absorbance at 690 nm was measured and subtracted from the absorbance at 405 nm for each well.
The reaction rate for enzyme alone was compared to the rate of enzyme in the presence of inhibitor and the percent inhibition was calculated as shown below: […]
An established esterolytic assay for the measurement of Factor D activity and inhibition of Factor D activity was used (Kam, C. M.; McRae, B. J.; Harper, J. W.; Niemann, M. A.; Volanakis, J. E.; Powers, J. C. Human complement proteins D, C2, and B Active site mapping with peptide thioester substrates. J Biol. Chem. 1987, 262, 3444-3451). For this assay Z-Lys-SBzl, 1.29 mM (Kim, S.; Narayana, S. V. L; Volanakis, J. E. Mutational analysis of the substrate binding site of human complement Factor D. Biochemistry. 1994, 33, 14393-14399.) was used as the substrate for Factor D ([…]). Hydrolysis of this compound by Factor D liberated a free sulfhydryl group which is then reacted with 5,5′-dithiobis(2nitrobenzoic acid) producing an intense yellow color (Habeeb, A. F. S. A. Reaction of protein sulfhydryl groups with Ellman's Reagent. Methods in Enzymol. 1976, 25, 457-464). The assays were performed in 96 well microtiter plates and rates of hydrolysis were monitored at 405 nm on a Biotek Synergy H1 plate reader. Hydrolysis rates were reported as change in mOD/min. The assay was conducted in 100 mM HEPES, 500 mM NaCl, pH 7.5 containing 10% DMSO in a final volume of 50 μL per well.
An IC50, a compound concentration which inhibits 50% of the enzymatic activity, was calculated. Compounds in the examples were tested a minimum of three times.

Chain of Factor D (P00746 26-253): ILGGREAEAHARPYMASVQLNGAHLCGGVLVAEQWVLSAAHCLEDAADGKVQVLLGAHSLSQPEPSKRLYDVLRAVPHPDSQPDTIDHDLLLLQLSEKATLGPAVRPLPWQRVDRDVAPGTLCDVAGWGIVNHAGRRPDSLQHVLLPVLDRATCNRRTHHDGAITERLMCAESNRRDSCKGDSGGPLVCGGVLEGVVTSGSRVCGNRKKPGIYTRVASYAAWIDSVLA

An IC50 of less than 1000 nM was found for `NCc1cccc(-c2cc(COc3ccccc3CC(=O)O)cc3c(F)coc23)c1` [Compound 44d, 2-(2-((7-(3-(aminomethyl)phenyl)-3-fluorobenzofuran-5-yl)methoxy)phenyl)acetic acid] in this work.

An IC50 of less than 1000 nM was found for `NCc1cccc(-c2cc(COc3ccccc3CC(=O)O)cc3c(F)coc23)c1F` [Compound 45b, 2-(2-((7-(3-(aminomethyl)-2-fluorophenyl)-3-fluorobenzofuran-5-yl)methoxy)phenyl)acetic acid] in this work.

An IC50 of less than 1000 nM was found for `NCc1nccc(-c2cc(COc3ccccc3CC(=O)O)cc3c(F)coc23)c1F` [Compound 46d, 2-(2-((7-(2-(aminomethyl)-3-fluoropyridin-4-yl)-3-fluorobenzofuran-5-yl)methoxy)phenyl)acetic acid] in this work.

An IC50 of less than 1000 nM was found for `NCc1cc(-c2cc(COc3ccccc3CC(=O)O)cc3c(F)coc23)ccn1` [Compound 47c, 2-(2-((7-(2-(aminomethyl)pyridin-4-yl)-3-fluorobenzofuran-5-yl)methoxy)phenyl)acetic acid] in this work.

An IC50 of less than 1000 nM was found for `CC(=O)c1ccc(CC(=O)O)c(OCc2cc(-c3cccc(CN)c3)c3occc3c2F)c1` [Compound 48g, 2-(4-acetyl-2-((7-(3-(aminomethyl)phenyl)-4-fluorobenzofuran-5-yl)methoxy)phenyl)acetic acid] in this work.

An IC50 of less than 1000 nM was found for `Cc1ccc(CC(=O)O)c(OCc2cc(-c3cccc(CN)c3)c3occ(F)c3c2)c1` [Compound 49d, 2-(2-((7-(3-(aminomethyl)phenyl)-3-fluorobenzofuran-5-yl)methoxy)-4-methylphenyl)acetic acid] in this work.

An IC50 greater than 10000 nM was found for `NCc1cc(-c2cc(COc3ccccc3CC(=O)O)cc3ccoc23)co1` [Compound 50e, 2-(2-((7-(5-(aminomethyl)furan-3-yl)benzofuran-5-yl)methoxy)phenyl)acetic acid] in this work.

An IC50 of less than 1000 nM was found for `NCc1cccc(-c2cc(COc3cc(C(F)(F)F)ccc3CC(=O)O)cc3cc(F)oc23)c1` [Compound 53d, 2-(2-((7-(3-(aminomethyl)phenyl)-2-fluorobenzofuran-5-yl)methoxy)-4-(trifluoromethyl)phenyl)acetic acid] in this work.

An IC50 of less than 1000 nM was found for `NCc1nccc(-c2cc(COc3cc(C(F)(F)F)ccc3CC(=O)O)cc3ccoc23)c1F` [Compound 56f, 2-(2-((7-(2-(aminomethyl)-3-fluoropyridin-4-yl)benzofuran-5-yl)methoxy)-4-(trifluoromethyl)phenyl)acetic acid] in this work.

An IC50 of less than 1000 nM was found for `NCc1cc(-c2cc(COc3cc(C(F)(F)F)ccc3CC(=O)O)cc3ccoc23)ccn1` [Compound 57b, 2-(2-((7-(2-(aminomethyl)pyridin-4-yl)benzofuran-5-yl)methoxy)-4-(trifluoromethyl)phenyl)acetic acid] in this work.

An IC50 of less than 1000 nM was found for `NCc1cccc(-c2cc(COc3cc(C(F)(F)F)ccc3CC(=O)O)cc3ccoc23)c1F` [Compound 58b, 2-(2-((7-(3-(aminomethyl)-2-fluorophenyl)benzofuran-5-yl)methoxy)-4-(trifluoromethyl)phenyl)acetic acid] in this work.

An IC50 of less than 1000 nM was found for `CCc1ccc(CC(=O)O)c(OCc2cc(-c3ccnc(CN)c3F)c3oc(F)cc3c2)c1` [Compound 59i, 2-(2-((7-(2-(aminomethyl)-3-fluoropyridin-4-yl)-2-fluorobenzofuran-5-yl)methoxy)-4-ethylphenyl)acetic acid] in this work.

An IC50 of less than 1000 nM was found for `NCc1cccc(-c2cc(C(CC(=O)O)Oc3ccccc3CC(=O)O)cc3ccoc23)c1` (stereo not shown) [Compound 62g, 3-(7-(3-(aminomethyl)phenyl)benzofuran-5-yl)-3-(2-(carboxymethyl)phenoxy)propanoic acid] in this work.

An IC50 of 1000 to 10000 nM was found for `NCc1ccn(-c2cc(COc3ccccc3CC(=O)O)cc3ccoc23)c1` [Compound 63f, 2-(2-((7-(3-(aminomethyl)-1H-pyrrol-1-yl)benzofuran-5-yl)methoxy)phenyl)acetic acid] in this work.

An IC50 of less than 1000 nM was found for `CC(=O)c1ccc(CC(=O)O)c(OCc2cc(-c3cccc(CN)c3)c3oc(F)cc3c2)c1` [Compound 64h, 2-(4-acetyl-2-((7-(3-(aminomethyl)phenyl)-2-fluorobenzofuran-5-yl)methoxy)phenyl)acetic acid] in this work.

An IC50 of less than 1000 nM was found for `NCc1cccc(-c2cc(COc3ccccc3CC(=O)O)c(OCC(=O)O)c3ccoc23)c1` [Compound 65g, lithium 2-((7-(3-(aminomethyl)phenyl)-5-((2-(carboxymethyl)phenoxy)methyl)benzofuran-4-yl)oxy)acetate] in this work.

An IC50 of less than 1000 nM was found for `CC(C)Oc1c(COc2ccccc2CC(=O)O)cc(-c2cccc(CN)c2)c2occc12` [Compound 66f, 2-(2-((7-(3-(aminomethyl)phenyl)-4-isopropoxybenzofuran-5-yl)methoxy)phenyl)acetic acid] in this work.

An IC50 of less than 1000 nM was found for `COc1c(COc2ccccc2CC(=O)O)cc(-c2cccc(CN)c2)c2occc12` [Compound 67f, 2-(2-((7-(3-(aminomethyl)phenyl)-4-methoxybenzofuran-5-yl)methoxy)phenyl)acetic acid] in this work.

An IC50 of less than 1000 nM was found for `NCc1cccc(-c2cc(COc3ccccc3CC(=O)O)c(C3CC3)c3ccoc23)c1` [Compound 68g, 2-(2-((7-(3-(aminomethyl)phenyl)-4-cyclopropylbenzofuran-5-yl)methoxy)phenyl)acetic acid] in this work.

An IC50 of less than 1000 nM was found for `NCc1cccc(-c2cc(COc3ccccc3CC(=O)O)c(OCC3CCCO3)c3ccoc23)c1` (stereo not shown) [Compound 69g, 2-(2-((7-(3-(aminomethyl)phenyl)-4-((tetrahydrofuran-2-yl)methoxy)benzofuran-5-yl)methoxy)phenyl)acetic acid] in this work.

An IC50 of less than 1000 nM was found for `CC(C)C(=O)Nc1ccc(CC(=O)O)c(OCc2cc(-c3cccc(CN)c3)c3occc3c2)c1` [Compound 70f] in this work.

An IC50 of less than 1000 nM was found for `NCc1cccc(-c2cc(C(=O)Nc3ccccc3CC(=O)O)cc3c2ccn3-c2ccccc2)c1` [Compound 71e, 2-(2-(4-(3-(aminomethyl)phenyl)-1-phenyl-1H-indole-6-carboxamido)phenyl)acetic acid] in this work.

An IC50 of less than 1000 nM was found for `CC(O)c1ccc(CC(=O)O)c(OCc2cc(-c3cccc(CN)c3)c3occc3c2)c1` (stereo not shown) [Compound 72e, 2-(2-((7-(3-(aminomethyl)phenyl)benzofuran-5-yl)methoxy)-4-(1-hydroxyethyl)phenyl)acetic acid] in this work.

An IC50 of less than 1000 nM was found for `NCc1cc(-c2cc(COc3ccc(F)cc3CC(=O)O)cc3cc(F)oc23)ccn1` [Compound 73c, 2-(2-((7-(2-(aminomethyl)pyridin-4-yl)-2-fluorobenzofuran-5-yl)methoxy)-5-fluorophenyl)acetic acid] in this work.

An IC50 of less than 1000 nM was found for `CC(=O)c1ccc(CC(=O)O)c(OCc2cc(-c3ccnc(CN)c3)c3oc(F)cc3c2)c1` [Compound 74d, 2-(4-acetyl-2-((7-(2-(aminomethyl)pyridin-4-yl)-2-fluorobenzofuran-5-yl)methoxy)phenyl)acetic acid] in this work.

An IC50 of less than 1000 nM was found for `CC(=O)c1ccc(CC(=O)O)c(OCc2cc(-c3ccnc(CN)c3F)c3oc(F)cc3c2)c1` [Compound 75d, 2-(4-acetyl-2-((7-(2-(aminomethyl)-3-fluoropyridin-4-yl)-2-fluorobenzofuran-5-yl)methoxy)phenyl)acetic acid] in this work.

An IC50 of less than 1000 nM was found for `CC(=O)c1ccc(CC(=O)O)c(OCc2cc(-c3cccc(CN)c3F)c3oc(F)cc3c2)c1` [Compound 76e, 2-(4-acetyl-2-((7-(3-(aminomethyl)-2-fluorophenyl)-2-fluorobenzofuran-5-yl)methoxy)phenyl)acetic acid] in this work.

An IC50 of less than 1000 nM was found for `CC(Oc1ccccc1CC(=O)O)c1cc(-c2cccc(CN)c2)c2occc2c1` (stereo not shown) [Compound 77e, 2-(2-(1-(7-(3-(aminomethyl)phenyl)benzofuran-5-yl)ethoxy)phenyl)acetic acid] in this work.

An IC50 of less than 1000 nM was found for `Cn1cc(-c2c(COc3ccccc3CC(=O)O)cc(-c3cccc(CN)c3)c3occc23)cn1` [Compound 78e, 2-(2-((7-(3-(aminomethyl)phenyl)-4-(1-methyl-1H-pyrazol-4-yl)benzofuran-5-yl)methoxy)phenyl)acetic acid] in this work.

An IC50 of less than 1000 nM was found for `Cn1ccc(COc2c(COc3ccccc3CC(=O)O)cc(-c3cccc(CN)c3)c3occc23)n1` [Compound 79g, 2-(2-((7-(3-(aminomethyl)phenyl)-4-((1-methyl-1H-pyrazol-3-yl)methoxy)benzofuran-5-yl)methoxy)phenyl)acetic acid] in this work.

An IC50 of less than 1000 nM was found for `NCc1cccc(-c2cc(COc3ccccc3CC(=O)O)c(OCc3ccncc3)c3ccoc23)c1` [Compound 80g, 2-(2-((7-(3-(aminomethyl)phenyl)-4-(pyridin-4-ylmethoxy)benzofuran-5-yl)methoxy)phenyl)acetic acid] in this work.
